This note sets out measurements from PubChem BioAssay (NCI).

“And” between values parts separate entries of the source, which are not always exact repeats. Identical values can stand only once.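 Cultured in 96-well plates, cells were exposed to test compound for 48 hours across five concentrations. At the GI50, growth is halved. TGI: concentration producing complete growth inhibition.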

Some test systems named below: LXFL 529 NSCLC; M19-MEL melanoma; SNB-78 CNS; KM20L2 colon; HS 578T breast; MCF7 breast; MDA-MB-231 breast; MDA-MB-435; NCI/ADR-RES ovarian; T-47D breast.
What all share (assay): NCI tumour cell line growth inhibition, 48 h

Take `O=S(=O)([O-])[O-].[OH3+].[OH3+].[OH3+].[Ru+2].c1ccccc1`: the GI50 with LXFL 529 NSCLC, in the assay on M19-MEL melanoma and in the assay on SNB-78 CNS was greater than 100 µM each time. Moreover, the TGI in the assay with LXFL 529 NSCLC, with M19-MEL melanoma and in the assay on SNB-78 CNS was greater than 100 µM in each case.
As to `CC(C)(C)NNC(=O)/C(=C/c1ccc(Oc2ccc(Cl)c(Cl)c2)cc1)NC(=O)c1ccccc1`, the TGI in the assay on KM20L2 colon, in the assay on LXFL 529 NSCLC, with M19-MEL melanoma and with SNB-78 CNS was greater than 100 µM each time.
Regarding `CCN(CC)CCCN(c1cc(OC)cc2nccnc12)S(=O)(=O)c1ccc(C)cc1`, the TGI in the assay with KM20L2 colon, in the assay with LXFL 529 NSCLC and with M19-MEL melanoma was greater than 100 µM throughout.
For the molecule `CC(=O)N(C)OC(=O)CC(=O)c1ccccc1`, the TGI in the assay on KM20L2 colon, in the assay with LXFL 529 NSCLC, with M19-MEL melanoma and with SNB-78 CNS was greater than 100 µM in each case.
In the case of `CC(C)C(C(=O)O)N(CC1(O)OCC(O)C(O)C1O)N=O` (centres undefined), the TGI in the assay on KM20L2 colon, in the assay on LXFL 529 NSCLC, in the assay on M19-MEL melanoma and with SNB-78 CNS was greater than 100 µM throughout.
For `O=C1C=CC(=O)c2c1ccc1c3ccccc3n(-c3ccccn3)c21`, the TGI was 28.5 µM in the assay on LXFL 529 NSCLC, 41.6 µM in the assay on M19-MEL melanoma and greater than 100 µM in the assay on SNB-78 CNS.
`COC(=O)c1c[nH]cc1CCc1c[nH]cc1C(=O)OC`: the TGI in the assay with KM20L2 colon, with LXFL 529 NSCLC, in the assay on M19-MEL melanoma and with SNB-78 CNS was greater than 100 µM in each case.
In the case of `C/C(CN1C(=O)c2ccccc2C1=O)=N\NS(=O)(=O)c1cccc([N+](=O)[O-])c1`, the TGI with KM20L2 colon, in the assay with LXFL 529 NSCLC, with M19-MEL melanoma and in the assay on SNB-78 CNS was greater than 100 µM in each case.
As for `NC(=S)/N=C/c1c(O)c2ccccc2oc1=O`, the TGI with KM20L2 colon, in the assay on LXFL 529 NSCLC, with M19-MEL melanoma and in the assay with SNB-78 CNS was greater than 100 µM each time.
Regarding `CCCN1C(=O)C/C(=C\C(C)=O)Nc2ccccc21`, the TGI in the assay on LXFL 529 NSCLC, in the assay on M19-MEL melanoma and in the assay on SNB-78 CNS was greater than 100 µM each time.
As to `CCCc1c2c([nH]c(=O)c1C)C(=O)c1[nH]c(=O)c(C)c(CCC)c1C2=O`, the results for the TGI with LXFL 529 NSCLC, with M19-MEL melanoma and in the assay with SNB-78 CNS were greater than 100 µM, 9.52 µM and greater than 100 µM, respectively.
For the molecule `Cc1ccc(S(=O)(=O)N/N=C(\CCN2CCCC2)CC(c2ccccc2)c2c(O)c3ccccc3oc2=O)cc1` (centres undefined), the TGI in the assay on KM20L2 colon, in the assay on LXFL 529 NSCLC, with M19-MEL melanoma and with SNB-78 CNS was greater than 100 µM in each case.
Take `C/C(=N\N=C(N)N)C(CN(CC(C)C)CC(C)C)C(=O)Nc1ccc(C)cc1C` (centres undefined): the TGI in the assay on KM20L2 colon, in the assay with LXFL 529 NSCLC, in the assay with M19-MEL melanoma and with SNB-78 CNS was greater than 100 µM in each case.
On to `CN(C)c1ccc(-c2cc(=O)c3ccccc3[nH]2)cc1`, for which the TGI in the assay with KM20L2 colon, with LXFL 529 NSCLC, in the assay with M19-MEL melanoma and in the assay with SNB-78 CNS was greater than 100 µM throughout.
On to `Cc1[nH]c(=O)[nH]c(=O)c1N(CCF)CCCl`, for which the TGI was 1660 µM in the assay with HS 578T breast; 455 µM and 1280 µM and 619 µM in the assay with KM20L2 colon; 502 µM and > 250 µM and 851 µM in the assay on MCF7 breast; 888 µM with MDA-MB-231 breast; 876 µM in the assay on MDA-MB-435; 820 µM and 1130 µM and 1090 µM in the assay on NCI/ADR-RES ovarian. Moreover, the TGI is 1000 µM and 1400 µM and 1210 µM in the assay on SNB-78 CNS; 1340 µM in the assay with T-47D breast. Also, the GI50 with KM20L2 colon is 194 µM and 429 µM; in the assay on MCF7 breast it was 140 µM; with NCI/ADR-RES ovarian, 443 µM and 206 µM; in the assay on SNB-78 CNS, 435 µM.
Turning to `C=CC1(C)CCC(C(C)C(=O)C(C=C(C)C)OC(C)=O)C12C(=O)Oc1ccccc1C2=O` (centres undefined), the TGI in the assay on KM20L2 colon, with LXFL 529 NSCLC, in the assay with M19-MEL melanoma and with SNB-78 CNS was greater than 100 µM throughout.
`O=C(O)c1ccc(S(=O)(=O)c2ccccc2)c([N+](=O)[O-])c1`: the TGI in the assay with KM20L2 colon, in the assay on LXFL 529 NSCLC, in the assay with M19-MEL melanoma and in the assay with SNB-78 CNS was greater than 100 µM in each case.
With `O=C(O)c1ccc(NC(=O)C2C(=O)C(=O)N(c3ccc(C(=O)O)cc3)C2=O)cc1` (centres undefined), the TGI in the assay with KM20L2 colon, with M19-MEL melanoma and with SNB-78 CNS was greater than 100 µM each time.
In the case of `Cn1ncc(=S)[nH]c1=S`, the TGI with KM20L2 colon, in the assay with LXFL 529 NSCLC, with M19-MEL melanoma and in the assay on SNB-78 CNS was greater than 100 µM in each case.
In the case of `CCn1c(=O)c(-c2ccn[nH]2)cc2c(C)nc(N)nc21`, the GI50 with HS 578T breast was 0.35 µM; in the assay with MCF7 breast, 0.389 µM; in the assay with MDA-MB-231 breast it was 1.45 µM; in the assay on MDA-MB-435 it was 1.69 µM; in the assay on NCI/ADR-RES ovarian, 1.4 µM; with T-47D breast, 0.173 µM. Also, the TGI in the assay on HS 578T breast is 2.38 µM; in the assay with MCF7 breast, greater than 100 µM; with MDA-MB-231 breast, 12 µM; in the assay on MDA-MB-435, greater than 100 µM; with NCI/ADR-RES ovarian it was greater than 100 µM; in the assay with T-47D breast, 0.748 µM.
Turning to `Nc1c(C(=O)Nc2ccccc2)sc2nc3c(cc12)CCCCCC3`, the GI50 is 0.529 µM with HS 578T breast; 0.288 µM in the assay with MCF7 breast; 0.892 µM with MDA-MB-231 breast; 0.068 µM with MDA-MB-435; 0.332 µM in the assay on NCI/ADR-RES ovarian; 0.892 µM in the assay on T-47D breast. For the same molecule, the TGI with HS 578T breast came to 9.64 µM; in the assay on MCF7 breast, 11.8 µM; with MDA-MB-231 breast, 43.1 µM; with MDA-MB-435, 0.266 µM; in the assay on NCI/ADR-RES ovarian it was 3.32 µM; with T-47D breast, 20.5 µM.
On to `CS(=O)(=O)c1ccc(Oc2cc(F)cc(C#N)c2)c2c1[C@H](O)[C@H](F)[C@@H]2F`, for which the GI50 in the assay with HS 578T breast, with MCF7 breast, in the assay with MDA-MB-231 breast, in the assay on MDA-MB-435, in the assay on NCI/ADR-RES ovarian and in the assay with T-47D breast was greater than 100 µM each time. The TGI in the assay with HS 578T breast, in the assay on MCF7 breast, with MDA-MB-231 breast, in the assay with MDA-MB-435, in the assay on NCI/ADR-RES ovarian and in the assay with T-47D breast was greater than 100 µM in each case.
Consider `CCNC(=O)C[C@@H]1N=C(c2ccc(Cl)cc2)c2cc(OC)ccc2-n2c(C)nnc21`, for which the GI50 is 0.796 µM in the assay on HS 578T breast; 0.532 µM in the assay on MCF7 breast; 2.76 µM in the assay on MDA-MB-231 breast; 1.75 µM with MDA-MB-435; greater than 56 µM with NCI/ADR-RES ovarian; 2.9 µM in the assay with T-47D breast. Moreover, the TGI in the assay on HS 578T breast was greater than 41.5 µM; in the assay on MCF7 breast, greater than 100 µM; in the assay on MDA-MB-231 breast it was greater than 100 µM; in the assay with MDA-MB-435, greater than 100 µM; with NCI/ADR-RES ovarian it was greater than 100 µM; in the assay with T-47D breast it was greater than 100 µM.
